≈ marks a conversion by molar mass, not a printed value. Read-outs that look alike come from different tables or passages of the source.
Columns and labels:
[1] = test system: Staphylococcus aureus CMX 503A; assay: In-vitro antimicrobial activity primary screen (agar dilution MIC); assay type: cell-based; conditions: BHI agar, 20-24 h
Procedure, shortened: (§1)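 MIC is read as the lowest compound level yielding no growth, slight haze or sparse colonies on the inoculum spot, relative to a drug-free plate. Strains were replicator-inoculated (1:100 dilution) onto BHI agar plates holding twelve dilutions and held at 35-37 °C for 20-24 h, with erythromycin A as comparator.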

[2] = test system: Staphylococcus aureus CMX 686B; assay: as above; assay type: cell-based; conditions: CMX686B, BHI agar, 20-24 h, read-out: MIC
Procedure, shortened: as §1

[3] = test system: Staphylococcus aureus CMX 553; assay: as above; assay type: cell-based; conditions: BHI agar, 20-24 h
Procedure, shortened: as §1

[4] = test system: Streptococcus pyogenes C-203; assay: In-vivo acute mouse protection assay; design: species or system Streptococcus pyogenes; female Swiss albino mice; conditions: dosed 1 and 5 h post-infection, observed 7 days
Method: An acute mouse protection test was conducted on ten mice with each of three concentrations of selected compounds of the invention. Each concentration was a four-fold dilution of the previous concentration. The initial concentration will vary with the microorganism with which the mouse is challenged.
The acute mouse protection test was conducted on female, Swiss albino mice, 18-20 grams in weight. […] To check the potency of the inoculum, a titration of the indicated test organism was carried out in control animals. The titration determines the LD50 for a particular microorganism. The treatment groups of animals were dosed orally, by gavage, or subcutaneously with the test compounds at 1 and 5 hours post-infection and observed for 7 days. The ED50 were calculated using the mortality data collected.

[5] = Pharmacokinetic evaluation in dogs after a 10 mg/kg dose; conditions: dog, plasma; for half-life: t1/2 (biological half life); for bioavailability: % ABS (percent absorbance), from AUC (absolute bioavailability); for Cmax: Cmax (maximum concentration in blood); for Tmax: Tmax (time to achieve maximum concentration in blood)
Method: (§3) Selected compounds of the present invention were formulated as solutions in dilute lactobionic acid at a concentration of 10 or 20 mg/ml. Groups of two or three dogs were given a 10 mg macrolide/kg intravenous bolus or oral dose (by gavage). Plasma samples, obtained at selected time points from 15 minutes to 32 hours after dosing, were assayed using reverse phase HPLC with electrochemical detection (parent drug) and microbiological assay (total microbiological activity). Plasma concentration time curves were subjected to multi exponential curve fitting to determine terminal elimination half life values. Area under the curve (AUC) values, calculated by the trapezoidal method, were used to calculate absolute bioavailability.

[6] = test system: Staphylococcus aureus 642A; assay: In-vitro antimicrobial activity primary screen (agar dilution MIC); assay type: cell-based; conditions: BHI agar, 20-24 h
Procedure, shortened: (§2)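 Growth inhibition was scored on Brain Heart Infusion agar after 20-24 h incubation at 35-37° C; the MIC is the lowest tested concentration yielding no growth, a slight haze or sparsely isolated colonies on the inoculum spot.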

[7] = test system: Staphylococcus aureus NCTC 10649; assay: as above; assay type: cell-based; conditions: BHI agar, 20-24 h
Procedure, shortened: as §2

[8] = test system: Haemophilus influenzae ATCC 43095; assay: Treatment of induced otitis media in gerbils; assay type: in vivo, Haemophilus influenzae; female mongolian gerbils; conditions: read-out: ED50 (dose required to reduce CFUs by 90%)
Method: The effectiveness of one of the compounds of the present invention in treating otitis media was examined as desribed below. A five hour log phase culture of Haemophilus influenzae ATCC 43095 was prepared in brain heart infusion broth (BHIB) supplemented with 4% Fildes enrichment and 0.001% nicotinamide adenine dinucleotide (NAD; commerically available from Sigma Chemical Co., St. Louis, Missouri).
Immediately prior to treatment with the test compounds, middle ear aspirates from five gerbils were obtained as described below and cultured to determine the level of infection at the onset of therapy. The test compounds produced by Example 19, (9S,11S)-11-Amino-9-deoxo-11,12-deoxy-9,12-epoxyerythromycin A, was administered orally by gavage in a 0.5 mL volume beginning 17 hours post infection and continuing three times daily for two days to groups of five gerbils. As a standard, a second group of gerbils was similarly treated using erythromycin. Eighteen hours after the final treatment, the gerbils were euthanized, 0.02 mL of BHIB injected into the middle ear bulla through the tympanic membrane, and middle ear aspirates collected and cultured.
The aspirates were diluted in BHIB and plated in duplicate onto chocolate agar. Colonies were counted after overnight incubation, and bacterial counts were expressed as colony forming units (CFUs) per middle ear. […]

in vivo = conditions: dog, iv, 10 mg/kg, t1/2 (biological half life), microbiological assay
Method: as §3

[9] = Staphylococcus aureus, CMX503A, 24 h, read-out: MIC
[10] = Staphylococcus aureus, CMX553, 24 h, read-out: MIC
[11] = iv, IV 10 mg/kg, HPLC (parent drug)
[12] = iv, IV 10 mg/kg, microbiological assay
[13] = po, oral 10 mg/kg, HPLC (parent drug)
[14] = po, oral 10 mg/kg, microbiological assay

Row | Compound | MIC [1, 9] | MIC [2] | MIC [3, 10] | ED50 ([4]; C203, 168 h, oral) | ED50 ([4]; C203, sc, 168 h, subcutaneous) | half-life [5, 11] | half-life [5, 12] | bioavailability [5, 13] | bioavailability [5, 14] | Cmax [5, 13] | Cmax [5, 14] | Tmax [5, 13] | half-life [5, 13] | half-life [5, 14] | Tmax [5, 14] | other results
1 | CC[C@H]1OC(=O)[C@H](C)[C@@H](O[C@H]2C[C@@](C)(OC)[C@@H](O)[C@H](C)O2)[C@H](C)[C@@H](O[C@@H]2O[C@H](C)C[C@H](N(C)C)[C@H]2O)[C@](C)(O)C[C@@H](C)[C@@H]2O[C@@]1(C)C(=O)[C@H]2C [Example 5, (9S)-9-Deoxo-11,12-dideoxy-9,12-epoxy-11-oxoerythromycin A] | 0.2 µg/mL (≈ 0.279 µM) | 0.39 µg/mL (≈ 0.545 µM) | 0.1 µg/mL (≈ 0.14 µM) | 3.9 mg/kg | 1.7 mg/kg | 12.2 h | 14.7 h | 81% | 76% | 2500 ng/mL | 2500 ng/mL | 4 h | 10.2 h | 10.5 h | – | –
2 | CC[C@H]1OC(=O)[C@H](C)[C@@H](O[C@H]2C[C@@](C)(OC)[C@@H](O)[C@H](C)O2)[C@H](C)[C@@H](O[C@@H]2O[C@H](C)C[C@H](N(C)C)[C@H]2O)[C@](C)(O)C[C@@H](C)C(=O)[C@H](C)[C@@H](O)[C@]1(C)O [Std, Erythromycin A, reference compound] | 0.2 µg/mL (≈ 0.273 µM) | 0.2 µg/mL (≈ 0.273 µM) | 0.2 µg/mL (≈ 0.273 µM) | – | – | – | – | – | 72% | – | 2500 ng/mL | – | – | – | 0.3 h | MIC [1]: 0.1 microgram/mL; MIC [3]: 0.1 microgram/mL; MIC [6]: 0.1 microgram/mL; MIC ([6]; Staphylococcus aureus, 642A, 24 h): 0.2 µg/mL (≈ 0.273 µM); MIC [7]: 0.1 microgram/mL; MIC ([7]; Staphylococcus aureus, NCTC10649, 24 h): 0.2 µg/mL (≈ 0.273 µM); ED50 ([8]; ATCC43095, po): > 300 mg/kg; half-life (in vivo): 1.4 h
3 | CC[C@H]1OC(=O)[C@H](C)[C@@H](O[C@H]2C[C@@](C)(OC)[C@H](N)[C@H](C)O2)[C@H](C)[C@@H](O[C@@H]2O[C@H](C)C[C@H](N(C)C)[C@H]2O)[C@](C)(O)C[C@@H](C)[C@@H]2O[C@@]1(C)[C@@H](O)[C@H]2C [Example 13, (4"R,9S,11S) 4"-Amino-9-deoxo-4",12-dideoxy-9,12-epoxyerythromycin A] | 0.2 µg/mL (≈ 0.279 µM) | 0.2 µg/mL (≈ 0.279 µM) | 0.2 µg/mL (≈ 0.279 µM) | 51.5 mg/kg | 9.3 mg/kg | 9.9 h | 18.3 h | 68% | 58% | 1600 ng/mL | 1700 ng/mL | 0.4 h | 9.6 h | 9.1 h | 0.4 h | –
4 | CC[C@H]1OC(=O)[C@H](C)[C@@H](O[C@H]2C[C@@](C)(OC)[C@@H](O)[C@H](C)O2)[C@H](C)[C@@H](O[C@@H]2O[C@H](C)C[C@H](N(C)C)[C@H]2O)[C@](C)(O)C[C@@H](C)[C@@H]2O[C@@]1(C)[C@@H](N)[C@H]2C [Example 19, (9S,11S)-11-Amino-9-deoxo-11,12-deoxy-9,12-epoxyerythromycin A] | 0.2 µg/mL (≈ 0.279 µM) | 0.2 µg/mL (≈ 0.279 µM) | 0.2 µg/mL (≈ 0.279 µM) | 28.9 mg/kg | 2.5 mg/kg | 7.5 h | 6.6 h | 59% | 67% | 3200 ng/mL | 3300 ng/mL | 0.25 h | 8.1 h | 5.8 h | 0.4 h | ED50 ([8]; ATCC43095, gerbil, oral gavage three times daily for two days from 17 h post infection): 46.5 mg/kg
5 | CC[C@H]1OC(=O)[C@H](C)[C@@H](O[C@H]2C[C@@](C)(OC)[C@@H](O)[C@H](C)O2)[C@H](C)[C@@H](O[C@@H]2O[C@H](C)C[C@H](N(C)C)[C@H]2O)[C@](C)(O)C[C@@H](C)[C@@H]2O[C@@]1(C)[C@@H](O)[C@H]2C [Example 4, (9S,11S)-9-Deoxo-12-deoxy-9,12-epoxyerythromycin A] | 0.2 µg/mL (≈ 0.279 µM) | 0.2 µg/mL (≈ 0.279 µM) | 0.2 µg/mL (≈ 0.279 µM) | 20 mg/kg | 3.3 mg/kg | 2.9 h | 2.9 h | 69% | 75% | 3900 ng/mL | 4300 ng/mL | 0.25 h | 2.9 h | 2.7 h | 0.4 h | –

Source: patent US5288709A, “Erythromycin derivatives” (priority 1991, dated 1994)
